According to ChEMBL document CHEMBL3046784, “Exploring QSAR of antiamoebic agents of isolated natural products by MLR, ANN, and RTO” (Med Chem Res, 2012):
≈ marks a conversion by molar mass, not a printed value.

Tested on: Entamoeba histolytica
Assay: Antiamoebic activity against Entamoeba histolytica
Assay type: functional, organism-based
[1] = Entamoeba histolytica, read-out: IC50

Compound | IC50 [1] [µg/mL] | IC50 [µg/mL]
CC[C@H]1CN2CCc3c([nH]c4ccccc34)[C@@H]2C[C@H]1C[C@H]1c2[nH]c3ccccc3c2CCN1C.O=C(O)C(=O)O | 0.65 | –
CC(C)=CCC/C(C)=C/CC/C(C)=C/CC/C=C(\C)CC/C=C(\C)CCC=C(C)C | 270 (≈ 658 µM) | –
COC1=C[C@]23CCN(C)[C@H](Cc4cc(OC)c(OC)cc42)C3=CC1=O | 50.1 (≈ 147 µM) | –
COc1cc2c3cc1Oc1c(OC)c(OC)cc4c1[C@H](Cc1ccc(cc1)Oc1cc(ccc1O)C[C@H]3N(C)CC2)N(C)CC4 (stereo in doubt; 13) [AROMOLINE] | – | 2.99 (≈ 4.91 µM)
COc1cc2c3cc1Oc1c(OC)c(OC)cc4c1[C@H](Cc1ccc(cc1)Oc1cc(ccc1O)C[C@H]3N(C)CC2)N(C)CC4 (stereo in doubt; 117) [AROMOLINE] | – | 19.64 (≈ 32.3 µM)
COc1ccc2cc1Oc1ccc(cc1)C[C@H]1c3cc(c(OC)cc3CCN1C)Oc1c(OC)c(OC)cc3c1[C@H](C2)N(C)CC3 (stereo in doubt; 145) [FANCHININ] | – | 25.16 (≈ 40.4 µM)
COc1ccc2cc1Oc1ccc(cc1)C[C@H]1c3cc(c(OC)cc3CCN1C)Oc1c(OC)c(OC)cc3c1[C@H](C2)N(C)CC3 (stereo in doubt; 146) [FANCHININ] | – | 10.51 (≈ 16.9 µM)
CC[C@](C)(OC(C)=O)C(=O)O[C@H]1C(=O)O[C@@H]2C[C@H]3C(C)=CC(=O)[C@@H](O)[C@]3(C)[C@H]3[C@@]4(O)OC[C@]32[C@@H]1[C@@H](C)[C@H]4O [2'-ACETOXY-GLAUCARUBINONE] | 0.155 (≈ 0.289 µM) | –
COc1c(O)cc2oc(-c3ccc(O)cc3)c(OC)c(=O)c2c1O [3,6-DIMETHOXY KAEMPFEROL] | 105 (≈ 319 µM) | –
C=C[C@H]1CN2CC[C@H]1C[C@@H]2[C@@]12Nc3ccccc3[C@]1(O)CCO2 [3-EPIQUINAMINE] | 12.9 (≈ 41.3 µM) | –
CC[C@@H]1CN2CCc3c([nH]c4ccccc34)[C@H]2C[C@@H]1CCO [3-ISOCORYNANTHEOL] | 4.1 (≈ 13.7 µM) | –
C=C[C@H]1CN2CCc3c([nH]c4ccccc34)[C@@H]2C[C@@H]1C[C@H]1NCCc2c1[nH]c1cccc(OC)c21 [3ALPHA-17ALPHA-CINCHOPHYLLINE] | 2.2 (≈ 4.71 µM) | –
C=C[C@H]1CN2CCc3c([nH]c4ccccc34)[C@@H]2C[C@@H]1C[C@@H]1NCCc2c1[nH]c1cccc(OC)c21 [3ALPHA-17BETA-CINCHOPHYLLINE] | 0.96 (≈ 2.06 µM) | –
CCc1ccc2[n+](c1)CCc1c-2[nH]c2ccccc12 [5,6-DIHYDROFLAVOPEREIRINE] | 6.02 | –
C=C[C@H]1CN2CC[C@H]1C[C@H]2c1[nH]c2ccccc2c1CCOC [10-METHOXY CINCHONAMINE] | 4.5 (≈ 14.5 µM) | –
CC[C@@H]1CN2CC[C@@]34c5ccccc5N5[C@@H]([C@@H]6[C@H]7C[C@@H]8N(CC[C@@]89c8cccc(O)c8N(C(C)=O)[C@@H]69)C[C@H]7CC)OC[C@H]([C@H]1C[C@H]23)[C@H]54 [12'-HYDROXYISOSTRYCHNOBILINE] | 21.4 (≈ 33.7 µM) | –
Oc1cc(O)c2c(c1)O[C@H](c1ccc(O)c(O)c1)[C@H](O)C2 [(-)-EPICATECHIN] | 1.92 (≈ 6.61 µM) | –
COC(=O)C1=CO[C@H](O[C@@H]2O[C@H](COC(C)=O)[C@@H](O)[C@H](O)[C@H]2O)[C@H]2[C@@H]1C=C[C@@]21C=C(C(O)c2ccc(O)cc2)C(=O)O1 (stereo not given in full) [ACETYLGAERTNEROSIDE] | 5.4 (≈ 9.14 µM) | –
CCC(C)C(=O)O[C@H]1C(=O)O[C@@H]2C[C@H]3C(C)=CC(=O)[C@@H](O)[C@]3(C)[C@H]3[C@]4(O)OC[C@]32[C@@H]1[C@@H](C)[C@H]4O (stereo not given in full) [AILANTHINONE] | 0.063 (≈ 0.132 µM) | –
CC[C@H]1[C@@H]2C[C@H]3[C@@H]4N(C)c5ccccc5[C@]45C[C@@H]([C@@H]2[C@H]5O)N3[C@@H]1O [AJMALINE] | > 100 | –

Compound | IC50 [1] [µg/mL] | IC50 [µg/mL]
C/C=C(/C=O)[C@@H]1C[C@H]2c3c(c4ccccc4n3[C@@H](O)C1)CCN2C [AKAGERINE] | 17.1 (≈ 52.7 µM) | –
O=c1cc(-c2ccc(O)cc2)oc2cc(OC3O[C@H](CO)[C@@H](O)[C@H](O)[C@H]3O)cc(O)c12 (stereo not given in full) [APIGENIN-7-O-GLUCOSIDE] | 59.8 (≈ 138 µM) | –
O=c1cc(-c2ccc(O)cc2)oc2cc(O)cc(O)c12 [APIGENIN] | 12.7 (≈ 47 µM) | –
COC(=O)C1=CO[C@@H](C)[C@@H]2CN3CCc4c([nH]c5ccc(OC)cc45)[C@@H]3C[C@H]12 [ARICINE] | 3.6 (≈ 9.41 µM) | –
CN1[C@@H]2CC[C@H]1C[C@@H](OC(=O)C(CO)c1ccccc1)C2 (stereo not given in full) [ATROPINE] | > 100 | –
COc1cc2c3cc1Oc1c(OC)c(OC)cc4c1[C@@H](Cc1ccc(O)c(c1)Oc1ccc(cc1)C[C@@H]3N(C)CC2)N(C)CC4 [BERBAMINE] | 22.4 (≈ 36.7 µM) | –
COc1ccc2cc3[n+](cc2c1OC)CCc1cc2c(cc1-3)OCO2 [BERBERINE] | 1 | –
CC[C@H](CC[C@@H](C)[C@H]1CC[C@H]2[C@@H]3CC=C4C[C@@H](O)CC[C@]4(C)[C@H]3CC[C@]12C)C(C)C [BETA-SITOSTEROL] | 52.3 (≈ 126 µM) | –
C/C=C(/C)C(=O)O[C@H]1[C@@H]2[C@H](C)C(=O)O[C@@H]2C[C@@H](C)[C@@H]2C=CC(=O)[C@]21C [BREVILIN A] | 3.11 (≈ 8.98 µM) | –
COC(=O)[C@@]12OC[C@]34[C@H]([C@@H](O)[C@@H]1O)[C@@]1(C)CC(=O)C(O)=C(C)[C@@H]1C[C@H]3OC(=O)[C@H](OC(=O)/C=C(\C)C(C)C)[C@@H]24 [BRUCEANTIN] | 0.019 (≈ 0.0346 µM) | –
COC(=O)[C@@]12OC[C@]34[C@H]([C@@H](O)[C@@H]1O)[C@@]1(C)CC(=O)C(O)=C(C)[C@@H]1C[C@H]3OC(=O)[C@H](OC(=O)CC(C)C)[C@@H]24 [BRUCEINE A] | 0.097 (≈ 0.186 µM) | –
COC(=O)[C@@]12OC[C@]34[C@H]([C@@H](O)[C@@H]1O)[C@@]1(C)CC(=O)C(O)=C(C)[C@@H]1C[C@H]3OC(=O)[C@H](OC(C)=O)[C@@H]24 [BRUCEINE B] | 0.306 (≈ 0.637 µM) | –
COC(=O)[C@]12OC[C@]34[C@H]([C@@H](O)[C@@H]1O)[C@@]1(C)CC(=O)C(O)=C(C)[C@@H]1C[C@H]3OC(=O)[C@H](OC(=O)/C=C(\C)C(C)(C)O)[C@@H]24 [BRUCEINE C] | 0.279 (≈ 0.494 µM) | –
CC1=CC(=O)[C@@H](O)[C@]2(C)[C@H]3[C@@H](O)[C@H](O)[C@]4(C)OC[C@@]35[C@@H](C[C@@H]12)OC(=O)[C@H](O)[C@]54O [BRUCEINE D] | 0.386 (≈ 0.941 µM) | –
COC(=O)[C@]12OC[C@]34[C@H]([C@@H](O)[C@@H]1O)[C@@]1(C)CC(=O)C(O)=C(C)[C@@H]1C[C@H]3OC(=O)[C@H](OC(=O)C=C(C)C)[C@@H]24 [BRUSATOL] | 0.062 (≈ 0.119 µM) | –
O=c1ccc2nccc3c4ccccc4n1c23 [CANTHIN-6-ONE] | 23 (≈ 104 µM) | –
CC(=O)CCCCCCCCCC[C@H]1CC[C@@H](O)[C@@H](C)N1 [CASSINE] | 12 (≈ 40.2 µM) | –
CC[C@H]1CN2CCc3cc(OC)c(OC)cc3[C@@H]2C[C@@H]1C[C@H]1NCCc2cc(O)c(OC)cc21 [CEPHAELINE] | 3.26 (≈ 6.99 µM) | –
O=c1cc(-c2ccccc2)oc2cc(O)cc(O)c12 [CHRYSIN] | 81 (≈ 319 µM) | –
COc1cc(-c2cc(=O)c3c(O)cc(O[C@@H]4O[C@H](CO)[C@@H](O)[C@H](O)[C@H]4O[C@@H]4O[C@@H](C)[C@H](O)[C@@H](O)[C@H]4O)cc3o2)ccc1O [CHRYSOERIOL-7-O-NEOHESPERIDOSIDE] | > 125 | –

Compound | IC50 [1] [µg/mL] | IC50 [µg/mL]
Cc1cc(O)c2c(c1)C(=O)c1cccc(O)c1C2=O [CHRYSOPHANOL] | 6.21 (≈ 24.4 µM) | –
Oc1cc(O)c2c(c1)O[C@H](c1ccc(O)c(O)c1)[C@@H](O)C2 [CIANIDANOL] | 65.5 (≈ 226 µM) | –
C=C[C@H]1CN2CC[C@H]1C[C@H]2c1[nH]c2ccccc2c1CCO [CINCHONAMINE] | 14.8 (≈ 49.9 µM) | –
COc1cc2c3c4c1Oc1cc5c(cc1O4)[C@H](Cc1ccc(O)c(c1)Oc1ccc(cc1)C[C@@H]3N(C)CC2)NCC5 [COCSOLINE] | 9.86 (≈ 18 µM) | –
CI.COc1cc2c3c4c1Oc1cc5c(cc1O4)[C@H](Cc1ccc(O)c(c1)Oc1ccc(cc1)C[C@@H]3N(C)CC2)N(C)CC5 [COCSULINE METHIODIDE] | 28.9 | –
COc1cc2c3c4c1Oc1cc5c(cc1O4)[C@H](Cc1ccc(O)c(c1)Oc1ccc(cc1)C[C@@H]3N(C)CC2)N(C)CC5 [COCSULINE] | 13.2 (≈ 23.5 µM) | –
C[C@@H]1N=C[C@]23CC[C@H]4[C@@H](CC=C5C[C@@H](N)CC[C@@]54C)[C@@H]2CC[C@H]13 [CONCKURCHINE] | 12 (≈ 38.4 µM) | –
CN[C@H]1CC[C@@]2(C)C(=CC[C@H]3[C@@H]4CC[C@@H]5[C@H](C)N=C[C@@]54CC[C@@H]32)C1 [CONESSIDINE] | 2.29 (≈ 7.01 µM) | –
C[C@@H]1NC[C@]23CC[C@H]4[C@@H](CC=C5C[C@@H](N(C)C)CC[C@@]54C)[C@@H]2CC[C@H]13 [CONESSIMINE] | 1.87 (≈ 5.46 µM) | –
C[C@H]1[C@H]2CC[C@H]3[C@@H]4CC=C5C[C@@H](N(C)C)CC[C@]5(C)[C@H]4CC[C@]23CN1C [CONESSINE] | 8.97 (≈ 25.2 µM) | –
COc1ccc2c3c(c4cc(OC)c(OC)cc4c2c1)C[C@H]1CCCCN1C3 [CRYPTOPLEURINE] | 0.031 (≈ 0.0821 µM) | –
COc1cc2c3cc1Oc1c(O)c(OC)cc4c1[C@H](Cc1ccc(cc1)Oc1cc(ccc1O)C[C@H]3NCC2)N(C)CC4 [DAPHNOLINE] | > 50 | –
CC[C@@H]1CN2CC[C@@]34c5ccccc5N5[C@@H]([C@@H]6[C@H]7C[C@@H]8N(CC[C@@]89c8ccccc8N(C(C)=O)[C@@H]69)C[C@H]7CC)OC[C@H]([C@H]1C[C@H]23)[C@H]54 [DIDEHYDRO ISOSTRYCHNOBILINE] | 21.4 (≈ 34.6 µM) | –
COc1ccc2cc1-c1cc(ccc1O)C[C@@H]1c3c(cc(OC)c4c3Oc3cc5c(cc3O4)CCN(C)[C@H]5C2)CCN1C [DINKLACORINE] | 19.8 (≈ 34.4 µM) | –
C/C=C1/C[N+]2(C)CCc3c([nH]c4ccccc34)C2CC1C(CO)C(=O)OC (stereo not given) [DIPLOCELINE] | 50 | –
Oc1cc(O)c2c(c1)O[C@H](c1cc(O)c(O)c(O)c1)[C@H](O)C2 [EPIGALLOCATECHIN] | 6.89 (≈ 22.5 µM) | –
COC(=O)C1=CO[C@H](O[C@@H]2O[C@H](CO)[C@@H](O)[C@H](O)[C@H]2O)[C@H]2[C@@H]1[C@@H]1O[C@@H]1[C@@]21C=C(C(O)c2ccc(O)cc2)C(=O)O1 (stereo not given in full) [EPOXYGAERTNEROSIDE] | 1.3 (≈ 2.3 µM) | –
COc1ccc2cc1Oc1ccc(cc1)C[C@H]1c3cc(c(OC)cc3CCN1C)Oc1c(O)c(OC)cc3c1[C@H](C2)N(C)CC3 [FANGCHINOLINE] | 14.7 (≈ 24.2 µM) | –
O=c1c(O)c(-c2ccc(O)c(O)c2)oc2cc(O)ccc12 [FISETIN] | 189 (≈ 660 µM) | –
COc1cc2c3cc1Oc1c(OC)c(OC)cc4c1[C@H](Cc1ccc(O)c(c1)-c1cc(ccc1OC)C[C@H]3N(C)CC2)N(C)CC4 [FUNIFERINE] | 28.3 (≈ 45.4 µM) | –
